The source of these data is patent US20210038559A1, “CANNABINOIDS AND DERIVATIVES FOR PROMOTING IMMUNOGENICITY OF TUMOR AND INFECTED CELLS” (priority 2018, published 2021).

Read-outs that look alike come from different tables or passages of the source.

Data set [1] concerns MHC-I expression on COLO 205 cells. Put plainly: Phytocannabinoid MHC-I induction on COLO 205 cells, 0-100 μM, 48 hours. The conditions noted are these: for Fold Induction: MHC-I expression on COLO 205 cells, 0-100 μM, 48 hours, relative to control cells treated only with buffer. On the procedure: FIG. 4. Cell surface MHC class I expression was measured by flow cytometry (MFI).
Phytocannabinoids were tested for MHC-I-inducing activity on COLO 205 cells. Each cannabinoid was tested at a concentration range of 0-100 μM. […] “ND” indicates not determined.

Data set [2] concerns MHC-I expression, COLO 205 cells. In words: Time course of MHC-I expression in CBD-treated COLO 205 cells. Type of data set: cell-based, human. The conditions noted are these: COLO 205, 15 μM. The method, then: FIG. 5. MHC-I expression (MFI) is induced over time in CBD-treated COLO 205 cells.
To determine whether changes in gene expression play a role in cannabinoid-induced MHC-I expression, COLO 205 cells were incubated with 15 μM CBD and cells were harvested at 6, 12, 24, and 48 hours for determination of MHC-I expression by flow cytometry.

Data set [3] deals with MHC class I expression on COLO 205 cells. In words: MHC class I expression on COLO 205 cells, 24 hours, flow cytometry (W6/32). The conditions noted are these: for fold induction at 10 µM / fold induction at 20 µM / fold induction at 30 µM / fold induction at 40 µM: Homo sapiens, COLO 205. On the procedure:
FIG. 2A-2F. […] Cells were treated for 24 hours and cell surface MHC class I expression was measured by flow cytometry.
Cannabigerol was also tested for its capacity to induce MHC class I expression in a human colorectal carcinoma cell line, COLO 205. The cells were treated with either 25 μM or 50 μM cannabigerol for 24 hours. Fluorophor (Alexa Fluor 488)-conjugated W6/32 antibody (Thermo Fisher) was used in a flow cytometry assay to quantitate MHC class I expression. […] Cannabigerol is only one of many cannabinoid-like molecules with potential biopharmaceutical activity. […] COLO 205 cells were treated with up to 40 μM of the cannabinoids 1-5 presented in Tables 1 and 2 and evaluated for cell surface MHC class I expression as described above for cannabigerol.

For data set [4], the system named is MHC class I expression, mouse Lewis lung carcinoma cell line A9. Put plainly: MHC class I expression in mouse A9 Lewis lung carcinoma cells, 24 hours, flow cytometry. It is filed as cell-based. The conditions noted are these: 100 ng/ml, positive control. On the procedure: FIG. 1A-1B. Cannabigerol stimulates MHC class I expression in the mouse A9 Lewis lung carcinoma (FIG. 1A) and the human COLO 205 colorectal carcinoma (FIG. 1B) cell lines. Cells were treated for 24 hours with 21.2 μM (A) or 25 and 50 μM (FIG. 1B) cannabigerol.
Cannabigerol, a representative cannabinoid, was tested for its ability to also stimulate MHC class I expression in mammalian cancer cell lines. The mouse Lewis lung carcinoma cell line, A9, was treated with 21 μM of cannabigerol for 24 hours prior to flow cytometric analysis of cell surface expression of MHC class I expression levels using the MHC class I antibody W6/32 (Thermo Fisher). Control conditions included the vehicle, dimethyl sulfoxide (DMSO, 1%) alone, and 100 ng/ml of trichostatin A (TSA), a histone deacetylase inhibitor and known inducer of MHC class I expression in mammalian cells. […] The positive control, TSA, stimulated expression by 2.4-fold.

In data set [5] the test system is MHC-I expression, mouse cancer cell lines. Put plainly: MHC-I expression restoration by IFN-γ in mouse cancer cell lines. Type of data set: cell-based. The conditions noted are these: 48 hours. The method, then:
(§1) FIG. 3A-3B. […] MHC-I downregulation is reversible in the majority of human and mouse cancer cell lines.
(§2) MHC-I expression may be restored in cancers, such as those with intact antigen processing machinery (APM) genes. Various human and mouse cancer cell lines were treated with dose titrations of recombinant human and mouse IFN-γ, respectively. The cells were incubated with IFN-γ for 48 hours in a humidified chamber at 37° C., stained with fluorescent haplotype-appropriate MHC-I antibody, then signal was determined by flow cytometry. Cancers represented in this experiment include brain (SK-N-MC), breast (4T1, EMT6), colorectal (COLO 205, SNU-C1, DLD-1, LS123, LS411N, LoVo, CT26, MC38), kidney (Renca), lung (NCI-H146, LLC), lymphoid (A20), and skin (A431, SK-MEL-2, B16F10). IFN-γ induced MHC-I expression in a dose-dependent manner in 6/10 (60%) human and 6/9 mouse (67%) cell lines. […] The results are found in FIGS. 3A-3B.

In data set [6] the test system is MHC-I expression, human cancer cell lines. Put plainly: MHC-I expression restoration by IFN-γ in human cancer cell lines. Type of data set: cell-based. The conditions noted are these: 48 hours. On the procedure: as §1, §2
[7] abbreviates: COLO 205, 10 μM, W6/32 staining.
The mark [8] stands for this setting: COLO 205, 20 μM, W6/32 staining.
The mark [9] stands for this setting: COLO 205, 30 μM, W6/32 staining.
[10] abbreviates: COLO 205, 40 μM, W6/32 staining.

With `C=C(C)[C@@H]1CCC(C)=CC1c1c(O)cc(CCCCC)cc1O` (stereo partly drawn) [Example 2, 2-[1R-3-methyl-6R-(1-methylethenyl)-2-cyclohexen-1-yl]-5-pentyl-1,3-benzenediol], in data set [1] (Homo sapiens, COLO 205, 48 h), a half-maximal response (EC50) required 10 µM. For the same molecule, in data set [1], the “Fold Induction” value was determined as 2.8 Fold. For the same molecule, the MHC-I expression entry was “robust induction” in data set [2] (48 hr) and “slight increase” in data set [2] (by 24 hours). The MFI in data set [3] (setting [7]) came out at 141; in data set [3] (setting [8]), 205; in data set [3] (setting [9]), 199; in data set [3] (setting [10]), 82. For the same molecule, the fold induction at 10 µM in data set [3] turned out to be 1.17. Also, in data set [3], the fold induction at 20 µM is 1.69. The fold induction at 30 µM in data set [3] stood at 1.64. Further, the fold induction at 40 µM in data set [3] was 0.68.
The molecule `CCCCCc1cc(O)c2c(c1)OC(C)(CCC=C(C)C)C=C2` (stereo not shown) [Example 3, 2-methyl-2-(4-methyl-3-penten-1-yl)-7-pentyl-2H-1-benzopyran-5-ol] registered an EC50 in data set [1] (Homo sapiens, COLO 205, 48 h) of 20 µM. The “Fold Induction” value in data set [1] is recorded as 1.6 Fold. The MFI stood at 120 in data set [3] (setting [7]), 148 in data set [3] (setting [8]), 177 in data set [3] (setting [9]) and 280 in data set [3] (setting [10]). For the same molecule, the fold induction at 10 µM in data set [3] came to 0.99. In addition, the fold induction at 20 µM in data set [3] amounted to 1.22. The fold induction at 30 µM in data set [3] is 1.46. Also, the fold induction at 40 µM in data set [3] was found to be 2.31.
In data set [1] (Homo sapiens, COLO 205, 48 h), `CCCCCc1cc(O)c2c(c1)OC(C)(C)c1ccc(C)cc1-2` [Example 4, 6,6,9-trimethyl-3-pentyl-6H-dibenzo[b,d]pyran-1-ol] came in with a concentration for a half-maximal effect (EC50) of 25 µM. The “Fold Induction” value in data set [1] is 1.8 Fold. Also, the MFI in data set [3] (setting [7]) worked out at 120; in data set [3] (setting [8]) it was 160; in data set [3] (setting [9]) it was 253; in data set [3] (setting [10]), 253. Moreover, the fold induction at 10 µM in data set [3] came out at 0.99. In data set [3], the fold induction at 20 µM turned out to be 1.32. Moreover, in data set [3], the fold induction at 30 µM was 2.09. In data set [3], the fold induction at 40 µM is 2.09.
Molecule `CCCc1cc(O)c2c(c1)OC(C)(C)[C@@H]1CCC(C)=C[C@@H]21` [Example 5, 6aR,7,8,10aR-tetrahydro-6,6,9-trimethyl-3-propyl-6H-dibenzo[b,d]pyran-1-ol] showed a half-maximal effective concentration (EC50) in data set [1] (Homo sapiens, COLO 205, 48 h) of 15 µM. Besides, the “Fold Induction” value in data set [1] was 3.0 Fold. In addition, the MFI in data set [3] (setting [7]) stood at 152. Also, the MFI in data set [3] (setting [8]) came out at 192. The molecule further gave an MFI in data set [3] (setting [9]) of 235. Also, the MFI in data set [3] (setting [10]) is given as 242. Also, in data set [3], the fold induction at 10 µM amounted to 1.26, the fold induction at 20 µM was determined as 1.59, the fold induction at 30 µM turned out to be 1.94 and the fold induction at 40 µM was determined as 2.
The molecule `CCCCCc1cc(O)c2c(c1)OC1(C)CCC3C1C2C3(C)C` [Example 390, (1aS,1a^1R,3aR,8bR)-1,1,3a-trimethyl-6-pentyl-1a,1a^1,2,3,3a,8b-hexahydro-1H-4-oxabenzo[f]cyclobuta[cd]inden-8-ol] registered an EC50 in data set [1] (Homo sapiens, COLO 205, 48 h) of 20 µM. In addition, the “Fold Induction” value in data set [1] is 4.2 Fold.
On to `CC(/C=C/C(=O)NO)=C\[C@@H](C)C(=O)c1ccc(N(C)C)cc1` [TSA, trichostatin A, reference compound], for which the “increase in MHC class I expression” value in data set [4] turned out to be 2.4 fold.
On to `C=C(C)[C@@H]1CCC(C)=C[C@H]1c1c(O)cc(CCCCC)cc1O` [cannabidiol (CBD)], for which the 50% effective concentration (EC50) in data set [1] (read-out: EC50 of MHC-I induction, COLO 205, 48 hours) came out at 10 µM.
Consider “Interferon-γ: a natural cytokine known to stimulate MHC class I expression in many mammalian cells”, for which the figures for the “cell lines with dose-dependent induction of MHC-I expression” value in data set [5] and in data set [6] were 6/9 and 6/10, respectively. In addition, the MFI in data set [3] (COLO 205, 0.004 ng/mL) is 119; in data set [3] (COLO 205, 0.012 ng/mL), 193; in data set [3] (COLO 205, 0.040 ng/mL) it was 250; in data set [3] (COLO 205, 0.110 ng/mL) it was 321; in data set [3] (COLO 205, 1.000 ng/mL) it was 483; in data set [3] (COLO 205, 3.000 ng/mL), 482. The “increase in MHC class I expression (maximum)” value in data set [3] (COLO 205, interferon-γ reference) is given as at most 4 fold.
